Assay results published in article PMC7546004, “Targeting BCL10 by small peptides for the treatment of B cell lymphoma” (Theranostics, 2020).
Square brackets hold non-standard residues; d marks the D form. Peptide text beside a SMILES is read from it.

Assays:
[1] = test system: HBL1 cells; assay: Intracellular pharmacokinetics, BCL10-P4 versus DRI-BCL10-P4
Description: (§1) MBP-Bcl10 was expressed and purified as previously described {Qiao, 2013 #85}. Purified
(§2) mM NaCl, 1% NP-40) at 4 °C for 1 hour, followed by addition of 5% BSA blocked S t re ptavidin (SAV)
(§3) Immunoprecipitant were washed 5 times with IP buffer and separated by SDS-PA G E . […]
(§4) hActin- F: 5’-[…]-3’
(§5) hIL6-R: 5’- […]-3 ’.
(§6) hBcl10-F: 5’-[…] TAGAAA-3’
hBcl10-R: 5’-[…] T-3’
1x105 HBL1, TMD8, OCl-LY 1 , OCl-LY 1 , U2932, MD901 or RCK8 cells were seeded in 12-well plate
wa sh e d and lysed with RIPA buffer.
immunoblotting with Streptavidin (Cell signaling, cat. #3999S). […]

[2] = target: T1, BCL10 (Homo sapiens, UniProt O95999); assay: In vitro BCL10 filamentation assay (negative-stain electron microscopy); format: biochemical; details: MBP-BCL10 and peptide premixed at 1:1 or 1:2 molar ratio, RT 30 min, then TEV cleavage
T1 sequence (O95999 1-233): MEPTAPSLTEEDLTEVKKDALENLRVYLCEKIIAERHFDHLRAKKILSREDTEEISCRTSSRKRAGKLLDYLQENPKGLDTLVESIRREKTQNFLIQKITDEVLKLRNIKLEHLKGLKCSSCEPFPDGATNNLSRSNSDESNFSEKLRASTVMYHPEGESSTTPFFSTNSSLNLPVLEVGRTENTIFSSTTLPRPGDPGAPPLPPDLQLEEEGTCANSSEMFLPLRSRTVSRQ
Description: MBP-BCL10 was expressed and purified as previously described. MBP-BCL10 and BCL10 peptide inhibitors were premixed at a 1:1 or 1:2 molar ratio at RT for 30 minutes before adding TEV to cleave the MBP tag. 5 μL of reaction mixture was applied to copper grids (Beijing Zhongjingkeyi Technology Co., Cat. No. BZ10024a), where it remained for 1 minute and was then negatively stained with 3% uranyl acetate for 1 minute, air-dried and imaged with a JEM-1230 TEM at 100 keV.

[3] = test system: NF-κB signalling pathway; assay: Western blot of NF-κB pathway proteins (IKKβ, p-IKKβ, IκBα, p-IκBα); format: cell-based; details: 12 h, indicated concentrations; Figure 6E
Description: Cell pellets were lysed in RIPA buffer (50 mM Tris at pH 8.0, 150 mM NaCl, 1% NP-40, 1 mM EDTA, and 1X protease inhibitor cocktail) or RIPA buffer containing 0.1% SDS. Equal amounts of protein extracts were separated by SDS-PAGE and blotted onto polyvinylidene difluoride (PVDF) membranes. The following Antibodies were purchased and used in this study: anti-IκBα (10268-1), anti-IKKβ (20979-1), anti-Bcl2 (12789-1-AP), anti-GAPDH (10494-1-AP), and anti-β-actin (66009-1-AP) were from Proteintech; anti-p-IκBα (2859S), anti-p-IKKβ (2697S), anti-RelB (10544), anti-α-tubulin (5335), anti-PARP (9532S), and anti-CARMA1 (4435) were from Cell Signaling Technology; anti-β-actin (A1978) was from Sigma; anti-Bcl10 (A1106) was from ABclonal; anti-A20 (sc-166692), anti-CYLD (sc-74435), and anti-MALT1 (sc-46677) were from Santa Cruz; anti-HOIL-1 (HPA024185) was from Atlas Antibodies; and anti-Myc (ab9106) was from Abcam.

[4] = test system: TMD8 cells; format: cell-based, human
Excerpt: (§7) GraphPad Prism software was used to determine GI50 values.

[5] = target: T2, MBP-BCL10 (Homo sapiens, UniProt O95999); assay: Co-immunoprecipitation of peptide with MBP-BCL10; format: binding; details: biotinylated peptide, streptavidin beads, 4 °C
T2 construct: made in house
Description: as §1, §2, §3, §4, §5, §6

[6] = test system: HBL1 cells; format: cell-based
Excerpt: as §7

[7] = test system: DLBCL cell lines; format: cell-based; details: Figure 6D and Figure S7D
Excerpt: as §7

CC[C@@H](C)[C@@H](NC(=O)[C@@H](CCCCN)NC(=O)[C@H](NC(=O)[C@@H](Cc1c[nH]c2ccccc12)NC(=O)[C@@H](Cc1ccccc1)NC(=O)[C@@H](CCC(N)=O)NC(=O)[C@@H](CC(N)=O)NC(=O)[C@@H](CCCNC(=N)N)NC(=O)[C@@H](CCCNC(=N)N)NC(=O)[C@@H](CCSC)NC(=O)[C@@H](CCCCN)NC(=O)[C@@H](Cc1c[nH]c2ccccc12)NC(=O)[C@@H](CCCCN)NC(=O)[C@@H](CCCCN)NC(=O)[C@@H](CCCNC(=N)N)NC(=O)[C@H](NC(=O)[C@@H](CO)NC(=O)[C@@H](CO)NC(=O)[C@@H](CCCNC(=N)N)NC(=O)[C@@H](CCCCN)NC(=O)[C@@H](CCCNC(=N)N)NC(=O)[C@@H](C)NC(=O)CNC(=O)[C@@H](CCCCN)NC(=O)[C@@H](CC(C)C)NC(=O)[C@@H](CC(C)C)NC(=O)[C@@H](CC(=O)O)NC(=O)[C@@H](Cc1ccc(O)cc1)NC(=O)[C@@H](CC(C)C)NC(=O)[C@@H](CCC(N)=O)NC(=O)[C@H](N)CCC(=O)O)[C@H](C)O)[C@H](C)CC)C(=O)N[C@H](CCC(N)=O)C(=O)N[C@H](CCCNC(=N)N)C(=O)N[C@H](CC(=O)O)C(=O)O [DRI-BCL10-P4] (H-[dE][dQ][dL][dY][dD][dL][dL][dK]G[dA][dR][dK][dR][dS][dS][dT][dR][dK][dK][dW][dK][dM][dR][dR][dN][dQ][dF][dW][dI][dK][dI][dQ][dR][dD]-OH)
intracellular level after the first 4 h (intracellular stability) [1]: maintained for a much longer time | uptake by HBL1 cells and level within the first 4 h [1]: similarly taken up | BCL10 filament formation (EM) [2]: effectively disrupted BCL10 filament formation | NF-κB pathway activation in HBL1 and TMD8 cells [3]: repressed NF-κB pathway activation | NF-κB pathway activation in OCI-LY1 cells [3]: but not in OCI-LY1 cells | GI50 [4]: 11.9 ± 6.2 µM | interaction with MBP-BCL10 (co-immunoprecipitation) [5]: interacted with BCL10 | GI50 [6]: 6.78 ± 3.7 µM | growth of CB-SMOC-dependent cell lines (HBL1, TMD8 and SU-DHL4 cells) [7]: selectively suppressed the growth of CB-SMOC-dependent cell lines
